Experimental findings from patent US8779158B2, “Trisubstituted pyrazoles as acetylcholine receptor modulators” (Janssen Pharmaceutica NV, priority 2008, dated 2014) are described below.

The target of test [1] is T1, hα7-wt nAChR (Homo sapiens, UniProt P36544).
T1 construct: expressed in transfected cells
Nature of the test: Ca2+ flux imaging (FDSS) (Protocol B), potentiation of the choline response. The following applies: Ca2+ assay as described in D.1; for EC50: "<5" = activity did not reach a top plateau at maximal concentration; for Emax: read-out: % Efficacy. In kind it is cell-based. In outline: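 Cells expressing hα7-wt nAChR, loaded with fluo-4AM (2 μM final) in HBSS with 10 mM HEPES, 5 mM CaCl2, 0.1% BSA and probenecid; compound (0.01–30 μM) added up to 10 min before 100 μM choline. Peak fluorescence potentiation relative to choline alone (100%); EC50 from sigmoidal curve.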

The target in test [2] is T2, hα7-wt nAChR-expressing GH4C1 cells (Homo sapiens, UniProt P36544).
T2 construct: expressed in transfected cells
T2 sequence (P36544 23-502): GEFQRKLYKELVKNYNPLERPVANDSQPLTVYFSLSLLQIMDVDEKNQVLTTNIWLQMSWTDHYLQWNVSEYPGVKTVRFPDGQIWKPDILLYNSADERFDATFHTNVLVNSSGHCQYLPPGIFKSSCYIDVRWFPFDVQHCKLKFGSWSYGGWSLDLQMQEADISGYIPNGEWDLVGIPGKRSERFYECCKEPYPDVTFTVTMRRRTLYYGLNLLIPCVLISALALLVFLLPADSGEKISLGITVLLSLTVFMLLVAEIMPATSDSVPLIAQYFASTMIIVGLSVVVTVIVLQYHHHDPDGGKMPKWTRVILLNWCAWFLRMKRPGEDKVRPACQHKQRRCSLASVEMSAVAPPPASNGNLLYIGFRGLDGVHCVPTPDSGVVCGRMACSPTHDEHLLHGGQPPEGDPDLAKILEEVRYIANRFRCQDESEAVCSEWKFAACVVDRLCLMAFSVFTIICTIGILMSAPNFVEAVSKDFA
Put plainly: Patch-clamp current recording (whole-cell voltage clamp), potentiation of the choline current and PAM type. It counts as cell-based. On the set-up: key: Type 0 compounds minimally enhance the effect size of the current elicited by 1 mM choline.; Type 1 compounds enhance the effect size of the current elicited by 1 mM choline but minimally alter the kinetics of the receptor.; Type 2 compounds enhance the effect size of the current elicited by 1 mM choline while reducing the rate and/or the extent of desensitization.; Type 3 compounds enhance the effect size of the current elicited by 1 mM choline. When tested at higher concentrations up to 10 μM they completely inhibit desensitization, in particular a 1 mM choline application of 250 milliseconds.; Type 4 compounds allow for an initial desensitization of the receptor followed by a re-opening of the receptor during agonist application. To be noted: 1 mM choline. The protocol: The compounds of the present invention are classified as type 1-4, based on qualitative kinetic properties, as determined by whole-cell voltage-clamp recordings. This classification is based on the effect of an α7 PAM compound, as described hereinbefore, on the signal elicited by an agonist application. In particular, said agonist is choline at a concentration of 1 mM. In a preferred experimental setting, said α7 PAM compound and choline are simultaneously applied to the cell, as described hereinafter. Desensitization is defined as the closure of the receptor upon activation during the application of the agonist in whole-cell voltage-clamp electrophysiology measurements seen as the reduction of the […] current after initial activation by the agonist.
The definition of the PAM types 1-4 is described hereinafter: • Type 0 compounds minimally enhance the effect size of the current elicited by 1 mM choline. • Type 1 compounds enhance the effect size of the current elicited by 1 mM choline but minimally alter the kinetics of the receptor. In particular, the rate and the extent of desensitization, elicited by the agonist, is not affected. The compound-modulated response to 1 mM choline, therefore, is a close to linear scaling of the 1 mM choline response in absence of the α7 PAM compound. • Type 2 compounds enhance the effect size of the current elicited by 1 mM choline while reducing the rate and/or the extent of desensitization. • Type 3 compounds enhance the effect size of the current elicited by 1 mM choline. […] At low-potency concentrations of the α7 PAM compound, the agonist-induced activation, which is followed by desensitization, can still be separated from the compound-induced re-opening as an initial inward current-maximum. At higher potency concentrations of the α7 PAM compound, the re-opening occurs faster than the closure due to desensitization so that the initial current-maximum disappears.
A compound was considered to have interesting PAM-like activity when the potentiation of the peak current was at least 200% compared to the control choline response (=100%). Such compounds are classified as belonging to a particular PAM type in the Experimental Part. Compounds not meeting the condition are not classified as belonging to a particular PAM-type.
The compounds also have a potentiating effect on the response to choline when measured by whole-cell patch clamp electrophysiology in GH4C1 cells stably over-expressing the human wild-type α7 receptor.
Patch-Clamp Current Recording
Patch-clamp recording from mammalian cells has provided a powerful means of assessing the function of membrane-bound proteins thought to be subunits of ligand-gated ion channels. Activation of such proteins by endogenous or exogenous ligands cause opening of a pore associated with the receptor through which ions flow down their electrochemical gradient. In the case of the hα7-wt nAChR-expressing GH4C1 recombinant cell line the preferential permeability to calcium of this receptor means that calcium flows into the cell upon activation by ACh, choline and other nicotinic ligands giving rise to a calcium current. Since this receptor rapidly desensitizes in the presence of agonist it is important an application system is used which is capable of very rapid switching of solutions (<100 ms) to prevent partial or full desensitisation of receptor responses coincident with the time of agonist application. Consequently, a second convenient technique to assess the enhancement of nicotinic efficacy is patch-clamp recording from hα7-wt nAChR-expressing GH4C1 cells coupled with a rapid-application system.
• The external recording solution consisted of 152 mM NaCl, 5 mM KCl, 1 mM MgCl2, 1 mM Calcium, 10 mM HEPES; pH 7.3. […]

T1 sequence (P36544 23-502): as above

Turning to `CCNC(=O)Cn1nc(Nc2cccc(C(F)(F)F)c2)cc1-c1ccnc(C)c1` [compound 36], the EC50 in test [1] is 1910 nM. The PAM type in test [2] is recorded as 2.
For `CNC(=O)Cn1nc(Nc2cccc(C(F)(F)F)c2)cc1-c1ccc2c(c1)OCCO2` [compound 76], in that order: 347 nM and 4.
Consider `Cc1cc(-c2cc(Nc3ccc4c(c3)OC(F)(F)O4)nn2CCC(=O)N(C)C)cc(C)n1` [compound 157], for which, in test [1], the EC50 was 363 nM and the Emax turned out to be 503%. The PAM type in test [2] was found to be 2.
As for `COCc1cc(-c2cc(Nc3ccc(F)c(F)c3)nn2CCC(=O)N(C)C)ccn1` [compound 70], the concentration for a half-maximal effect (EC50) in test [1] is 1350 nM. The PAM type in test [2] is listed as 3.
For `CC[C@H](O)Cn1nc(Nc2cc(OC)cc(C(F)(F)F)c2)cc1-c1ccnc(C)c1` [compound 183], in that order: 794 nM and 0.
For `COCc1cc(-c2cc(Nc3cccc(Cl)c3)nn2CCC(=O)N(C)C)ccn1` [compound 149] the same measures were 437 nM and 4.
On to `CCNC(=O)Cn1nc(Nc2cccc(C(F)(F)F)c2)cc1-c1cc(C)nc(C)c1` [compound 155], for which, in test [1], the EC50 was 550 nM and the Emax amounted to 576%. Further, the PAM type in test [2] was found to be 2.
As to `CCNc1cc(-c2cc(Nc3ccc(F)c(F)c3F)nn2C[C@@H](O)CC)ccn1` [compound 135], the EC50 in test [1] is 759 nM. Further, the PAM type in test [2] stood at 1.
Take `Cc1cnccc1-c1cc(Nc2ccc3c(c2)OC(F)(F)O3)nn1CCC(=O)N(C)C` [compound 90]: in test [1], the concentration giving a half-maximal response (EC50) is 912 nM. In test [2], the PAM type was determined as 4.
As to `Cc1cc(-c2cc(Nc3ccc4c(c3)OC(F)(F)O4)nn2CC(=O)NC2CC2)cc(C)n1` [compound 145], in test [1], the concentration for a half-maximal effect (EC50) is 479 nM and the Emax is 736%. Also, the PAM type in test [2] is reported as 2.
Consider `CNC(=O)Cn1nc(Nc2cc(F)c(F)c(F)c2)cc1-c1ccc2c(c1)OCCO2` [compound 74], for which, in test [1], the EC50 is 251 nM. Moreover, in test [2], the PAM type is on record as 2.
For `CNC(=O)Cn1nc(Nc2cccc(OC(F)(F)F)c2)cc1-c1ccc2c(c1)OCCO2` [compound 77] the same measures were 417 nM and 4.
Consider `Cc1cc(-c2cc(Nc3ccc(F)c(C(F)(F)F)c3)nn2C[C@H](C)O)ccn1` [compound 43], for which, in test [1], the concentration for a half-maximal effect (EC50) was 1450 nM and the Emax amounted to 700%. In addition, the PAM type in test [2] turned out to be 1.
In the case of `CC[C@H](O)Cn1nc(Nc2cccc(Cl)c2F)cc1-c1ccnc(C)c1` [compound 118], in test [1], the half-maximal effective concentration (EC50) was 1170 nM and the Emax was found to be 633%. In test [2], the PAM type is given as 0.
For the molecule `COc1ccc(-c2cc(Nc3ccc(F)c(F)c3)nn2CCC(=O)N(C)C)c(Cl)c1` [compound 12], the EC50 in test [1] was 661 nM. For the same molecule, the PAM type in test [2] is recorded as 0.
For `Cc1cc(-c2cc(Nc3cccc(OC(F)(F)F)c3)nn2CCC(=O)N(C)C)cc(C)n1` [compound 165], in test [1], the concentration for a half-maximal effect (EC50) is 363 nM and the Emax turned out to be 738%. In addition, in test [2], the PAM type is given as 1.
For `CCNC(=O)Cn1nc(Nc2cc(F)c(F)c(F)c2)cc1-c1ccnc(C)c1` [compound 128], in that order: 851 nM, 643% and 2.
In the case of `Cc1ccc(-c2cc(Nc3ccc(F)c(C(F)(F)F)c3)nn2CCC(=O)N(C)C)cn1` [compound 28], the EC50 in test [1] is 776 nM. Also, the PAM type in test [2] was 4.
Take `CCOC(=O)Cn1nc(Nc2ccc(F)c(F)c2)cc1-c1ccc2c(c1)OCCO2` [compound 10, 3-[(3,4-difluorophenyl)amino]-5-(2,3-dihydro-1,4-benzodioxin-6-yl)-1H-pyrazole-1-acetic acid ethyl ester]: the EC50 in test [1] is 245 nM. Moreover, in test [2], the PAM type is recorded as 2.
Consider `CC[C@H](O)Cn1nc(Nc2ccc(F)c(C(F)(F)F)c2)cc1-c1ccnc(C)c1` [compound 46], for which the EC50 in test [1] is 891 nM. Besides, in test [2], the PAM type is 0.
`CCNC(=O)Cn1nc(Nc2ccc(F)c(C(F)(F)F)c2)cc1-c1ccc(C)nc1` [compound 27]: in test [1], the EC50 was 1150 nM. Moreover, in test [2], the PAM type amounted to 2.
In the case of `COc1cc(Nc2cc(-c3ccnc(C)c3)n(CC(=O)NCC3CC3)n2)cc(C(F)(F)F)c1` [compound 131], the EC50 in test [1] was 813 nM. The PAM type in test [2] is 2.
Consider `COc1cc(Cl)cc(Nc2cc(-c3ccnc(C)c3)n(CC(=O)NC3CC3)n2)c1` [compound 110], for which, in test [1], the EC50 is 1780 nM. In test [2], the PAM type is 2.
For `Cc1cnccc1-c1cc(Nc2cc(F)cc(C(F)(F)F)c2)nn1CCC(=O)N(C)C` [compound 9, 3-[[3-fluoro-5-(trifluoromethyl)phenyl]amino]-N,N-dimethyl-5-(3-methyl-4-pyridinyl)-1H-pyrazole-1-propanamide], in that order: 1020 nM and 4.
For `CNC(=O)Cn1nc(Nc2cccc(Cl)c2)cc1-c1cc(C)nc(C)c1` [compound 54], in test [1], the EC50 was 977 nM. Moreover, in test [2], the PAM type came out at 2.
Take `Cc1cc(-c2cc(Nc3cccc(Cl)c3F)nn2CC(=O)NCC2CC2)ccn1` [compound 170]: in test [1], the EC50 is 186 nM and the Emax was 783%. In addition, the PAM type in test [2] is recorded as 2.
Regarding `COc1cc(Cl)cc(Nc2cc(-c3ccnc(C)c3)n(CC(=O)NCC3CC3)n2)c1` [compound 132], the half-maximal effective concentration (EC50) in test [1] is 794 nM. Further, the PAM type in test [2] was 2.
As to `CNC(=O)Cn1nc(Nc2ccc3c(c2)OC(F)(F)O3)cc1-c1ccnc(COC)c1` [compound 112], in test [1], the EC50 is 1510 nM. For the same molecule, the PAM type in test [2] was determined as 4.
Consider `Cc1cc(-c2cc(Nc3cccc(Cl)c3)nn2CC(=O)NCC2CC2)ccn1` [compound 163], for which the concentration for a half-maximal effect (EC50) in test [1] is 324 nM. Further, the PAM type in test [2] was 2.
Regarding `CNC(=O)Cn1nc(Nc2ccc(F)c(F)c2F)cc1-c1ccnc(C)c1` [compound 107], in test [1], the EC50 was 1860 nM and the Emax stood at 907%. In addition, the PAM type in test [2] is on record as 2.
Consider `CC[C@H](O)Cn1nc(Nc2cc(Cl)cc(OC)c2)cc1-c1ccnc(C)c1` [compound 122], for which, in test [1], the EC50 is 1020 nM. For the same molecule, in test [2], the PAM type stood at 1.
`Cc1cc(-c2cc(Nc3cc(F)c(F)c(F)c3)nn2CCC(=O)N(C)C)ccn1` [compound 142]: in test [1], the 50% effective concentration (EC50) is 617 nM and the Emax came out at 816%. In test [2], the PAM type turned out to be 2.
For `Cc1cc(-c2cc(Nc3ccc(F)c(F)c3F)nn2CC(=O)NCC2CC2)ccn1` [compound 164] the same measures were 309 nM, 482% and 2.
`CCNC(=O)Cn1nc(Nc2cccc(Cl)c2F)cc1-c1ccnc(C)c1` [compound 137]: in test [1], the EC50 is 631 nM and the Emax was found to be 946%. In addition, the PAM type in test [2] came out at 2.
`CCNC(=O)Cn1nc(Nc2cccc(Cl)c2)cc1-c1ccnc(C)c1` [compound 111]: the EC50 in test [1] is 1700 nM. Further, in test [2], the PAM type worked out at 2.
For `CCNC(=O)Cn1nc(Nc2cc(OC)cc(C(F)(F)F)c2)cc1-c1ccnc(C)c1C` [compound 51], in that order: 3310 nM and 2.
